Test results as given in patent US8124794B2, “Method for the asymmetric synthesis of beta-lactone compounds” (Sanford-Burnham Medical Research Institute, priority 2006, dated 2012).
Like-named read-outs stand apart in the source and are kept apart here. Values belong to the molecule of their own block, whether it stands above or below them.

Key:
[1] = target: T1, recombinant thioesterase domain of fatty acid synthase (FAS TE) (Homo sapiens, UniProt P49327); assay: Fluorogenic assay (4-MUH substrate) for inhibition of recombinant FAS thioesterase domain; assay type: biochemical
T1 construct: Expression of the recombinant thioesterase domain of FAS was performed as described previously
T1 sequence (P49327 2207-2511 limits assumed): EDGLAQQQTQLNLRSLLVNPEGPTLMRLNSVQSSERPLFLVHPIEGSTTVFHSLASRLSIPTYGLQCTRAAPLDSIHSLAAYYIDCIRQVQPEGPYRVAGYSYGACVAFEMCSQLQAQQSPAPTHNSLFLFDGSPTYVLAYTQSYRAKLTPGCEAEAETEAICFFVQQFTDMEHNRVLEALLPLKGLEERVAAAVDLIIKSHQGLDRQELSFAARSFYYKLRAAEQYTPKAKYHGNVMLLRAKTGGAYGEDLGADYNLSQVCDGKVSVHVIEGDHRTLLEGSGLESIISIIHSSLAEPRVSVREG
Excerpt: The synthetic fluorogenic substrate, 4-methylumbelliferyl heptanoate (4-MUH), was purchased from Sigma (St. Louis, Mo.). […] Results are the average of triplicate time points.

normal HMECs = assay: Apoptosis by DNA fragmentation ELISA
MDA-MB-435 cells = assay: Apoptosis by DNA fragmentation ELISA; conditions: Homo sapiens, MDA-MB-435, read-out: half-maximal apoptotic response
[2] = system: cellular fatty acid synthesis; assay: [14C]-acetate incorporation into fatty acids, prostate tumor cells; assay type: cell-based; conditions: level of orlistat inhibiting about 90% of activity-based labeling of FAS
Protocol: Studies were performed to determine the effect of orlistat on tumor cells. As a first step, we measured the ability to inhibit the activity of FAS in whole cells. […] . A concentration-dependent inhibition of labeling by FP-Bodipy was evident (FIG. 2; top panel), indicating enzyme inhibition. […] .
Inhibition of fatty acid synthesis by orlistat.

[3] = system: cellular fatty acid synthesis in MDA-MB-435 cells; assay: [14C]-acetate incorporation into cellular fatty acids, MDA-MB-435 cells; conditions: MDA-MB-435, 100 μM
Protocol: Cells were seeded at density of 2.5×10^4 cells/well in 24-well plates. Prior to the addition of orlistat, the wells were washed twice with PBS. Serum-free RPMI containing 300 μg/ml BSA and insulin/transferrin/selenium supplement was added to the wells, with or without orlistat. The cells were incubated for two hours prior to the addition of 1 μCi of [^14C]-acetate to label newly synthesized fatty acids. After two hours, the labeling medium was removed and the cells were washed with PBS/EDTA and trypsinized The cells pellets were washed twice more with PBS and fatty acids were extracted by the addition of an equal mixture of chloroform-methanol for 30 minutes. The extracted material was dried under a stream of N2 gas and extracted further with water-saturated butanol. The butanol was removed by drying under a stream of N2 gas and labeled fatty acids were detected by scintillation counting.
MDA-MB-435 cells were fed [^14C]-acetate as a precursor, and treated with orlistat.

HUVEC = HUVEC proliferation by BrdU incorporation; assay type: cell-based, human; conditions: for IC50: Homo sapiens, HUVEC, read-out: concentration required for a half maximal effect on proliferation
Protocol: The effect of orlistat on HUVEC proliferation induced by several mitogenic stimuli was assessed by BrdU incorporation. Orlistat and mitogen were added simultaneously to serum-starved cells, and BrdU included during the period equivalent to the second round of the cell cycle after mitogen addition. Orlistat inhibited proliferation induced by complete endothelial medium (containing a undefined mixture of mitogens), by bFGF and by VEGF. […] Cell proliferation was measured by incorporation of BrdU. HUVEC were seeded in 96 well plates at a density of 2000 cells/well and cultured in Endothelial Growth medium (EGM; Clonetics, Walkerville, Md.) for 24 h at 37° C. Cells were serum-starved for further 24 h in Endothelial Basal Medium (EBM; Clonetics, Walkerville, Md.)+0.2% FCS. Medium was replaced with orlistat (40-0 uM) diluted in (A) EGM, (B) EBM+2% FCS+bFGF (5 ng/ml), (C) EBM+2% FCS+VEGF (20 ng/ml) or (D) EBM+0.2% FCS. Cells were incubated 48 h at 37 deg C., with BrdU present during the final 24 h. Medium was removed, the cell monolayers fixed, and BrdU incorporation measured by ELISA. Proliferation was expressed as a percentage of that measured in the absence of orlistat.

[4] = system: hydrolase expressed at 28 kDa; assay: FP-TAMRA labeling of serine hydrolases in mammary cell lysates; assay type: biochemical, human
Protocol: (§1) The serine hydrolase activity profiles of the prostate cell lines were measured using the fluorophosphonate probe fp-PEG-TAMRA using methods described previously (Liu et al., supra; Kidd et al., supra). Briefly, 40 μl of a 1 mg/ml solution of the soluble fractions of each cell lines were treated with 2 μM fp-PEG-TAMRA for one hour at ambient temperature. The labeling reactions were stopped by the addition of Laemmli buffer followed by boiling for 5 minutes. As a control for non-specific reaction of the probe, a duplicate sample was boiled for ten minutes prior to labeling with fp-PEG-TAMRA to denature all enzymatic activity. The labeled samples were resolved by 10% SDS-PAGE and visualized by scanning with a Hitachi flatbed scanner at 605 nm.
(§2) Ebelactone A and B stocks were made in DMSO. Orlistat was made in EtOH. Cell lysate were generated at 1 mg/ml as described above. Samples (40 μg) were incubated with inhibitors for twenty minutes prior to addition of fp-PEG-TAMRA. The final concentration of DMSO or EtOH in each reaction was 10%. The labeling reactions were stopped by the addition of Laemmli sample buffer and samples were resolved on 10% SDS-PAGE and visualized.
(§3) Labeling of serine hydrolases in the cell lysates with FP-TAMRA was challenged with each of the beta-lactones Inhibition experiments were performed under pre-steady state conditions, so that relative IC50 values could be compared. […] Tetrahydrolipstatin is selective for the hydrolase at 270 kDa that is expressed in breast cancer cell lines.

[5] = system: hydrolase migrating at 31 kDa; assay: as above; assay type: biochemical, human
Protocol: as §1, §2, §3

[6] = recombinant FAS TE, 4-MUH substrate, 30 min pre-incubation at 37 deg.C, read-out: apparent Ki

Ki [1, 6]: 23.1 ± 4.2 µM
Structure (SMILES): CCCCC[C@@H]1OC(=O)[C@@H]1CCCC (stereo in doubt) [3a, (3R,4S)-3-butyl-4-pentyloxetan-2-one]

Ki [1, 6]: > 100 µM
Structure (SMILES): O=C1O/C(=C\CC2CCCCC2)[C@@H]1CC1CCCCC1 [2c]

Ki [1, 6]: 5.04 ± 2.1 µM
Structure (SMILES): O=C1O/C(=C\Cc2ccccc2)[C@@H]1Cc1ccccc1 [2d]

Ki [1, 6]: 7.7 ± 0.43 µM
Structure (SMILES): O=C1O[C@H](CCC2CCCCC2)[C@@H]1CC1CCCCC1 [3c]

Ki [1, 6]: > 100 µM
Structure (SMILES): COC(=O)CC[C@H]1OC(=O)[C@H]1CC(=O)OC [3e]

Ki [1, 6]: 14.6 ± 4 µM
Structure (SMILES): CCCCC[C@@H]1OC(=O)[C@]1(C)CCCC [8a, (3R,4S)-3-butyl-3-methyl-4-pentyloxetan-2-one]

EC50 (MDA-MB-435 cells): ~4 µM
Structure (SMILES): CCCCCCCCCCC[C@@H](C[C@@H]1OC(=O)[C@H]1CCCCCC)OC(=O)[C@H](CC(C)C)NC=O [Orlistat, tetrahydrolipstatin]
apoptotic response across a range of orlistat (normal HMECs): No effect | reduction of total cellular fatty acid synthesis [2]: approximately 70% | reduction of incorporation of [14C]-acetate into cellular fatty acids [3]: approximately 70% | IC50 (HUVEC; VEGF): 1.25 µM | IC50 (HUVEC; bFGF): 1 µM | IC50 (HUVEC; complete medium): 4 µM | concentration at which maximum inhibition of proliferation was achieved (HUVEC; complete medium, bFGF or VEGF): ≥ 10 µM | maximum inhibition of proliferation (HUVEC; stimulated with VEGF): ~80% | maximum inhibition of proliferation (HUVEC; stimulated with bFGF): ~90% | maximum inhibition of proliferation (HUVEC; stimulated with complete medium): ~90%

Second part, the molecule before the results:

Structure (SMILES): O=C1O[C@H](CCC2CCCC2)[C@@H]1CC1CCCC1 [3b]
Ki [1, 6]: 13.5 ± 7.8 µM

Structure (SMILES): O=C1O[C@H](CCc2ccccc2)[C@@H]1Cc1ccccc1 [3d]
Ki [1, 6]: 2.5 ± 0.47 µM

Structure (SMILES): CCCCC[C@@H]1OC(=O)[C@@]1(CCCC)Cc1ccccc1 [8b, (3S,4S)-3-benzyl-3-butyl-4-pentyloxetan-2-one]
Ki [1, 6]: 19.2 ± 0.36 µM

Structure (SMILES): CC[C@H](C)[C@@H](O)[C@H](C)C(=O)[C@H](C)/C=C(\C)C[C@H](C)C1OC(=O)[C@H]1C (some centres unmarked) [ebelactone A]
inhibition of labeling of 28 kDa hydrolase [4]: potent inhibitor | inhibition of labeling of 31 kDa hydrolase [5]: far less effective

Structure (SMILES): CC[C@@H]1C(=O)OC1[C@@H](C)C/C(C)=C/[C@@H](C)C(=O)[C@@H](C)[C@H](O)[C@@H](C)CC (some centres unmarked) [ebelactone B]
inhibition of labeling of 28 kDa hydrolase [4]: little effect | inhibition of labeling of 31 kDa hydrolase [5]: abolished labeling

Structure (SMILES): CCCCC[C@H]1OC(=O)[C@@H]1CCCC [trans-3a, (3R,4R)-3-butyl-4-pentyloxetan-2-one]
Ki [1, 6]: 4.01 ± 1.9 µM

Structure (SMILES): O=C1O[C@H](CCc2ccccc2)[C@H]1Cc1ccccc1 [trans-3d]
Ki [1]: 3.3 ± 0.2 µM
